Entries after “also recorded” stand apart in the source; their conditions may differ. Read-outs that look alike come from different tables or passages of the source.
Assays:
H209 SCLC cell line = assay: In vitro cytotoxicity, low throughput MTS assay, H209; assay type: cell-based; conditions: Homo sapiens, NCI-H209, TP53 c.673-2A > T, read-out: IC50 (nM), cell line sensitivity to volasertib
Procedure: (§2) The cytotoxicity of 10 different targeted agents was determined in a panel of genomically annotated SCLC cell lines by low throughput MTS assay. Inhibitors of the bromodomain, HSP90, CDK2, MEK, PIK3CA and PLK1 were tested in a panel of SCLC cell lines (DMS53, DMS114, DMS153, H146, H209, H69, H128, H187, H526) well characterized for genetic alterations and expression profiles.

H69 SCLC cell line = assay: In vitro cytotoxicity, low throughput MTS assay, H69; assay type: cell-based; conditions: TP53 c.511G > T, concurrent hemizygous deletion, read-out: IC50 (nM), cell line sensitivity to volasertib
Procedure: as §2

DMS53 SCLC cell line = assay: In vitro cytotoxicity, low throughput MTS assay, DMS53; assay type: cell-based; conditions: Homo sapiens, DMS-53, TP53 c.722C > T, read-out: IC50 (nM), cell line sensitivity to volasertib
Procedure: (§3) An agnostic screening approach was employed by evaluating in vitro cytotoxicity of biologically targeted agents that have not been previously evaluated in SCLC clinical trials. […] The cytotoxicity of 10 different targeted agents was determined in a panel of genomically annotated SCLC cell lines by low throughput MTS assay. Inhibitors of the bromodomain, HSP90, CDK2, MEK, PIK3CA and PLK1 were tested in a panel of SCLC cell lines (DMS53, DMS114, DMS153, H146, H209, H69, H128, H187, H526) well characterized for genetic alterations and expression profiles.

DMS153 SCLC cell line = assay: In vitro cytotoxicity, low throughput MTS assay, DMS153; assay type: cell-based; conditions: Homo sapiens, DMS-153, TP53 c.463A > C, read-out: IC50 (nM), cell line sensitivity to volasertib
Procedure: as §3

H146 SCLC cell line = assay: In vitro cytotoxicity, low throughput MTS assay, H146; assay type: cell-based; conditions: Homo sapiens, NCI-H146, TP53 wild type, read-out: IC50 (nM), cell line sensitivity to volasertib
Procedure: as §3

H187 SCLC cell line = assay: In vitro cytotoxicity, low throughput MTS assay, H187; assay type: cell-based
Procedure: as §3

H292 NSCLC cell line = assay: In vitro cytotoxicity before and after shRNA knockdown of TP53 in H292; assay type: cell-based; conditions: compared to parental and vector-treated controls
Procedure: (§1) Whether depletion of endogenous wild type P53 and enforced expression of active P53 mutant would alter cancer cell line sensitivity to PLK1 inhibitor was evaluated. Due to low transfection efficiency in SCLC cell lines, established NSCLC cell line models were relied on to interrogate PLK1 activity following TP53 gene modulation. In vitro cytotoxicity of PLK1 inhibitors were compared before and after shRNA knockdown of TP53 in H292 and A549. In these cell lines with wild type TP53, there was increased sensitivity to PLK1 inhibitors following shRNA knockdown in comparison to parent cells and vector treated controls (FIG. 4). We also evaluated PLK1 inhibitor activity in p53−/− H1299 cells following enforced expression of active mutant forms of TP53. There was reduced sensitivity of the mutant-bearing cell lines compared to parental p53−/− cells (FIG. 5).

[1] = system: panel of SCLC cell lines (DMS53, DMS114, DMS153, H146, H209, H69, H128, H187, H526); assay: Agnostic cytotoxicity screening of targeted agents in panel of SCLC cell lines (MTS assay); conditions: for IC50 concentration / activity against SCLC cell lines (in words) / In vitro activity versus a priori threshold (submicromolar in vitro cytotoxicity): panel of SCLC cell lines; for In vitro activity versus a priori threshold (submicromolar in vitro cytotoxicity): MTS assay
Procedure: as §3

DMS114 SCLC cell line = assay: In vitro cytotoxicity, low throughput MTS assay, DMS114; assay type: cell-based; conditions: Homo sapiens, DMS-114, TP53 c.637C > T, concurrent hemizygous deletion, read-out: IC50 (nM), cell line sensitivity to volasertib
Procedure: as §2

[2] = system: H526 SCLC cell line xenograft; assay: Subcutaneous xenograft model of H526 SCLC cell line; assay type: in vivo, athymic (nu/nu) mice; conditions: volasertib 30 mg/kg i.p. weekly; p<0.003
Procedure: To establish whether the promising in vitro activity of these PLK1 inhibitors translates into antitumor efficacy in vivo. The activity of PLK1 inhibitors were compared to that of approved drugs currently employed in the management of SCLC. The in vivo efficacy of volasertib (30 mg/kg i.p. weekly), cisplatin (3 mg/kg i.p. weekly) and irinotecan (25 mg/kg i.p. weekly) was tested, using a subcutaneous xenograft model of the H526 cell line, the most sensitive cell line from our in vitro screen (FIG. 2). Tumor xenografts were established in 6-week old athymic (nu/nu) mice using H526 cells (1-2×10^7) suspended in serum-free medium mixed with Matrigel™ solution and injected subcutaneously into the flank region of nude mice. Treatment began in groups of tumor-bearing mice (approximately 6 mice per group) matched for body weight and tumor volume when the tumors achieved a volume of approximately 100 mm^3.

A549 NSCLC cell line = assay: In vitro cytotoxicity before and after shRNA knockdown of TP53 in A549; assay type: cell-based; conditions: compared to parental and vector-treated controls
Procedure: as §1

[3] = system: TKO-005 PDX of platinum sensitive SCLC; assay: Patient derived xenograft (PDX) model of platinum sensitive SCLC (TKO-005); assay type: in vivo
From the text: PDX models generated from SCLC patients enrolled in a recently completed translational phase II clinical trial of arsenic trioxide were employed. […] The activity of rigosertib was compared to that of cisplatin (expected to be active in a PDX from a platinum sensitive tumor) and arsenic trioxide (expected to have no efficacy based on the clinical trial outcome for the patient whose tumor biopsy was used to generate the PDX).

[4] = system: panel of SCLC cell lines (DMS53, DMS114, DMS153, H146, H209, H69, H128, H187, H526)
Procedure: as §3

Structure (SMILES) | Sensitivity to PLK1 inhibitor after shRNA knockdown of TP53 (H292 NSCLC cell line) | IC50 concentration / activity against SCLC cell lines (in words) [1] | In vitro activity versus a priori threshold (submicromolar in vitro cytotoxicity) [1] | Sensitivity to PLK1 inhibitor after shRNA knockdown of TP53 (A549 NSCLC cell line) | Tumor growth inhibition compared to vehicle [3] | In vitro activity versus a priori threshold (submicromolar in vitro cytotoxicity) [4] | also measured
CC[C@@H]1C(=O)N(C)c2cnc(Nc3ccc(C(=O)N[C@H]4CC[C@H](N5CCN(CC6CC6)CC5)CC4)cc3OC)nc2N1C(C)C [volasertib] | sensitized | picomolar IC50 concentration; also recorded: low nanomolar to picomolar activity | met the a priori threshold of activity | sensitized | – | – | IC50 (H209 SCLC cell line): 0.057 nM; IC50 (H69 SCLC cell line): 0.018 nM; IC50 (DMS53 SCLC cell line): 0.118 nM; IC50 (DMS153 SCLC cell line): 0.672 nM; IC50 (H146 SCLC cell line): 0.163 nM; Surviving viable cells (H187 SCLC cell line; BI6727 concentration of 0.01 nM and higher): no surviving viable cells; IC50 (H187 SCLC cell line; Homo sapiens, NCI-H187, TP53 c.722C > G, concurrent hemizygous deletion, read-out: IC50 (nM), cell line sensitivity to volasertib): 0.004 nM; IC50 ([1]; read-out: mean IC50 concentration, less sensitive SCLC cell lines): 0.25 nM; IC50 ([1]; read-out: mean IC50 concentration, more sensitive SCLC cell lines): 0.03 nM; IC50 (DMS114 SCLC cell line): 0.092 nM; Tumor growth inhibition relative to control [2]: significant tumor growth inhibition
COc1cc(OC)c(/C=C/S(=O)(=O)Cc2ccc(OC)c(NCC(=O)O)c2)c(OC)c1 [rigosertib] | sensitized | picomolar IC50 concentration; also recorded: low nanomolar to picomolar activity | met the a priori threshold of activity | sensitized | significant tumor growth inhibition comparable to cisplatin | – | Tumor weight compared to vehicle [3]: reduced tumor weight
N.N.[Cl][Pt][Cl] [cisplatin] | – | – | – | – | comparable efficacy | – | –
CCc1cnn2c(NCc3ccc[n+]([O-])c3)cc(N3CCCC[C@H]3CCO)nc12 [SCH727965] | – | – | – | – | – | met the a priori threshold of activity | –
CCNC(=O)c1noc(-c2cc(C(C)C)c(O)cc2O)c1-c1ccc(CN2CCOCC2)cc1 [AUY922] | – | – | – | – | – | met the a priori threshold of activity | –

Reference: patent US20200016130A1, “Methods of Diagnosing and Treating Small Cell Lung Cancer Using Polo-Like Kinase 1 (PLK1) Inhibitors” (Emory University, priority 2017, published 2020)
